Results on 22 molecules are retold here after patent US8741897B2, “Glucocorticoid mimetics, methods of making them, pharmaceutical compositions and uses thereof” (Boehringer Ingelheim Pharmaceuticals Inc., priority 2003, dated 2014).

In test [1] the test system is glucocorticoid receptor function. Put plainly: one or more of the above assays (GR binding and glucocorticoid receptor cell assays: aromatase, IL-6, TAT, MMTV-Luc, IL-8, ICAM-Luc). To be noted: assay not specified per compound. The test is classed as cell-based.
In test [2] the target is T1, human glucocorticoid receptor (GR) complex (Homo sapiens, UniProt P04150).
T1 construct: made in house; host or cells: insect expression system (baculovirus lysate)
T1 sequence (P04150 1-777): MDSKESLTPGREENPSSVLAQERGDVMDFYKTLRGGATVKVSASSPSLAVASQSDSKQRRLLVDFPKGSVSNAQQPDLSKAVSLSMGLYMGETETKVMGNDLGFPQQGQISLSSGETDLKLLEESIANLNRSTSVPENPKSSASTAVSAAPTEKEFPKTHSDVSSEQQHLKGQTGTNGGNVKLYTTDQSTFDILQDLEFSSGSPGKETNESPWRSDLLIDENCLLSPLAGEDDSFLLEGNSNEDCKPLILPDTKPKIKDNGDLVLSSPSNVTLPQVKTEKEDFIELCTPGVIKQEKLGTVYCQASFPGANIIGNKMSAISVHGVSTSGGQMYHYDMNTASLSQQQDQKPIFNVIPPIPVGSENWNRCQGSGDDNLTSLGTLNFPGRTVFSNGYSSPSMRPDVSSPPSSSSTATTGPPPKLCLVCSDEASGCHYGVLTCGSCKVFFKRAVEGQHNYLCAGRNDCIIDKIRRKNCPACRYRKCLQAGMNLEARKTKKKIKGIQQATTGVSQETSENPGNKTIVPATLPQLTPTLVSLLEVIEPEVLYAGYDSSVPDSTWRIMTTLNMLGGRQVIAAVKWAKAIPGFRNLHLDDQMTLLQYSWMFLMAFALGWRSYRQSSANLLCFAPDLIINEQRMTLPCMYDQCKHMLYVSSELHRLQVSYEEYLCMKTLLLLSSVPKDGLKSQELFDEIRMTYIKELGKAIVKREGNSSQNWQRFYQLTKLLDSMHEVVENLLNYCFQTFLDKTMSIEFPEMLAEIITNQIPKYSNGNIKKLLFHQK
Put plainly: Glucocorticoid receptor competitive binding assay (fluorescence polarization, TAMRA-labeled dexamethasone probe). To be noted: compounds of Formula (IA). The method in brief:
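Fluorescence-polarization competition against 15 nM TAMRA-dexamethasone (stock added to the mix) for human GR complex from baculovirus lysate diluted 1:170. Buffer: 10 mM TES, 50 mM KCl, 20 mM Na2MoO4, 1.5 mM EDTA, 0.04% CHAPS, 10% glycerol, 1 mM DTT, pH 7.4. IC50 from 4-parameter logistic fit.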
(Polarisation of emitted light reports the rotation of a fluorescent probe.)

For the molecule `COc1ccc(F)cc1C(C)(C)CC(O)(Cc1cc2c(C)cncc2[nH]1)C(F)(F)F` (centres unmarked) [1,1,1-Trifluoro-4-(5-fluoro-2-methoxyphenyl)-4-methyl-2-(4-methyl-1H-pyrrolo[2,3-c]pyridin-2-ylmethyl)pentan-2-ol], the “activity as agonists of the glucocorticoid receptor function in one or more of the above assays” value (shortened to “activity as agonists”) in test [1] is on record as “potent agonists”. The “activity in the GR binding assay” value in test [2] is recorded as “potent activity”.
Regarding `COc1ccc(F)cc1C(C)(C)CC(O)(Cc1cc2cc(C(F)(F)F)ncc2[nH]1)C(F)(F)F` (centres unmarked) [1,1,1-Trifluoro-4-(5-fluoro-2-methoxyphenyl)-4-methyl-2-(5-trifluoromethyl-1H-pyrrolo[2,3-c]pyridin-2-ylmethyl)pentan-2-ol], the “activity as agonists” value in test [1] is listed as “potent agonists”. The “activity in the GR binding assay” value in test [2] is “potent activity”.
The like results for `COc1ccc(F)cc1C(C)(C)CC(O)(Cc1cc2nnccc2[nH]1)C(F)(F)F` (centres unmarked) [1,1,1-Trifluoro-4-(5-fluoro-2-methoxyphenyl)-4-methyl-2-(5H-pyrrolo[3,2-c]pyridazin-6-ylmethyl)pentan-2-ol] were, in that order, “potent agonists” and “potent activity”.
The corresponding values for `COc1ccc(F)cc1C(C)(C)CC(O)(Cc1cc2ncncc2[nH]1)C(F)(F)F` (centres unmarked) [1,1,1-Trifluoro-4-(5-fluoro-2-methoxyphenyl)-4-methyl-2-(5H-pyrrolo[3,2-d]pyrimidin-6-ylmethyl)pentan-2-ol] are “potent agonists” and “potent activity”.
In the case of `COc1ccc(F)cc1C(C)(C)CC(O)(Cc1cc2cnc(C)cc2[nH]1)C(F)(F)F` (centres unmarked) [1,1,1-Trifluoro-4-(5-fluoro-2-methoxyphenyl)-4-methyl-2-(6-methyl-1H-pyrrolo[3,2-c]pyridin-2-ylmethyl)pentan-2-ol], the “activity as agonists” value in test [1] is recorded as “potent agonists”. Moreover, in test [2], the “activity in the GR binding assay” value is recorded as “potent activity”.
The corresponding values for `COc1ccc(F)cc1C(C)(C)CC(O)(Cc1ccnc2cc(C)ccc12)C(F)(F)F` (centres unmarked) [1,1,1-Trifluoro-4-(5-fluoro-2-methoxyphenyl)-4-methyl-2-(7-methylquinolin-4-ylmethyl)pentan-2-ol] are “potent agonists” and “potent activity”.
For `COc1ccc(F)cc1C(C)(C)CC(O)(Cc1cc2cncnc2[nH]1)C(F)(F)F` (centres unmarked) [1,1,1-Trifluoro-4-(5-fluoro-2-methoxyphenyl)-4-methyl-2-(7H-pyrrolo[2,3-d]pyrimidin-6-ylmethyl)pentan-2-ol], the “activity as agonists” value in test [1] is “potent agonists”. Further, the “activity in the GR binding assay” value in test [2] was “potent activity”.
The like results for `COc1ccc(F)cc1C(C)(C)CC(O)(Cc1cc2cnncc2s1)C(F)(F)F` (centres unmarked) [1,1,1-Trifluoro-4-(5-fluoro-2-methoxyphenyl)-4-methyl-2-thieno[2,3-d]pyridazin-2-ylmethylpentan-2-ol] were, in that order, “potent agonists” and “potent activity”.
The corresponding values for `COc1cc2cc(CC(O)(CC(C)(C)c3cc(F)ccc3C)C(F)(F)F)[nH]c2cn1` (centres unmarked) [1,1,1-Trifluoro-4-(5-fluoro-2-methylphenyl)-2-(5-methoxy-1H-pyrrolo[2,3-c]pyridin-2-ylmethyl)-4-methylpentan-2-ol] are “potent agonists” and “potent activity”.
The like results for `COc1ccc2[nH]c(CC(O)(CC(C)(C)c3cc(F)ccc3C)C(F)(F)F)cc2n1` (centres unmarked) [1,1,1-Trifluoro-4-(5-fluoro-2-methylphenyl)-2-(5-methoxy-1H-pyrrolo[3,2-b]pyridin-2-ylmethyl)-4-methylpentan-2-ol] were, in that order, “potent agonists” and “potent activity”.
In the case of `Cc1ccc(F)cc1C(C)(C)CC(O)(Cc1cc2ccnc(F)c2[nH]1)C(F)(F)F` (centres unmarked) [1,1,1-Trifluoro-4-(5-fluoro-2-methylphenyl)-2-(7-fluoro-1H-pyrrolo[2,3-c]pyridin-2-ylmethyl)-4-methylpentan-2-ol], the “activity as agonists” value in test [1] is given as “potent agonists”. For the same molecule, the “activity in the GR binding assay” value in test [2] is recorded as “potent activity”.
The like results for `Cc1ccc(F)cc1C(C)(C)CC(O)(Cc1cc2cnccc2[nH]1)C(F)(F)F` (centres unmarked) [1,1,1-Trifluoro-4-(5-fluoro-2-methylphenyl)-4-methyl-2-(1H-pyrrolo[3,2-c]pyridin-2-ylmethyl)pentan-2-ol] were, in that order, “potent agonists” and “potent activity”.
Consider `Cc1ccc(F)cc1C(C)(C)CC(O)(Cc1[nH]c2cnccc2c1C)C(F)(F)F` (centres unmarked) [1,1,1-Trifluoro-4-(5-fluoro-2-methylphenyl)-4-methyl-2-(3-methyl-1H-pyrrolo[2,3-c]pyridin-2-ylmethyl)pentan-2-ol], for which the “activity as agonists” value in test [1] is “potent agonists”. In addition, the “activity in the GR binding assay” value in test [2] is listed as “potent activity”.
In the case of `Cc1ccc(F)cc1C(C)(C)CC(O)(Cc1cc2ncncc2[nH]1)C(F)(F)F` (centres unmarked) [1,1,1-Trifluoro-4-(5-fluoro-2-methylphenyl)-4-methyl-2-(5H-pyrrolo[3,2-d]pyrimidin-6-ylmethyl)pentan-2-ol], the “activity as agonists” value in test [1] is “potent agonists”. Further, the “activity in the GR binding assay” value in test [2] is “potent activity”.
The like results for `Cc1cc2[nH]c(CC(O)(CC(C)(C)c3cc(F)ccc3C)C(F)(F)F)cc2cn1` (centres unmarked) [1,1,1-Trifluoro-4-(5-fluoro-2-methylphenyl)-4-methyl-2-(6-methyl-1H-pyrrolo[3,2-c]pyridin-2-ylmethyl)pentan-2-ol] were, in that order, “potent agonists” and “potent activity”.
Turning to `Cc1ccc(F)cc1C(C)(C)CC(O)(Cn1ccc2ncccc21)C(F)(F)F` (centres unmarked) [1,1,1-Trifluoro-4-(5-fluoro-2-methylphenyl)-4-methyl-2-pyrrolo[3,2-b]pyridin-1-ylmethylpentan-2-ol], in test [1], the “activity as agonists” value is listed as “potent agonists”. Further, in test [2], the “activity in the GR binding assay” value was “potent activity”.
The corresponding values for `Cc1ccc(F)cc1C(C)(C)CC(O)(Cc1ccnc2ccccc12)C(F)(F)F` (centres unmarked) [1,1,1-Trifluoro-4-(5-fluoro-2-methylphenyl)-4-methyl-2-quinolin-4-ylmethylpentan-2-ol] are “potent agonists” and “potent activity”.
On to `Cc1ccc(F)cc1C(C)(C)CC(O)(Cc1cc2cnccc2s1)C(F)(F)F` (centres unmarked) [1,1,1-Trifluoro-4-(5-fluoro-2-methylphenyl)-4-methyl-2-thieno[3,2-c]pyridin-2-ylmethylpentan-2-ol], for which the “activity as agonists” value in test [1] is reported as “potent agonists”. In addition, the “activity in the GR binding assay” value in test [2] is given as “potent activity”.
For `CC(C)(CC(O)(Cc1ccnc2ccccc12)C(F)(F)F)c1ccccc1C(F)(F)F` (centres unmarked) [1,1,1-Trifluoro-4-methyl-2-quinolin-4-ylmethyl-4-(2-trifluoromethylphenyl)pentan-2-ol], in test [1], the “activity as agonists” value was “potent agonists”. Also, the “activity in the GR binding assay” value in test [2] is recorded as “potent activity”.
In the case of `CC(C)(CC(O)(Cc1ccnc2ccccc12)C(F)(F)F)c1ccc(C(F)(F)F)cc1` (centres unmarked) [1,1,1-Trifluoro-4-methyl-2-quinolin-4-ylmethyl-4-(4-trifluoromethylphenyl)pentan-2-ol], the “activity as agonists” value in test [1] is recorded as “potent agonists”. The “activity in the GR binding assay” value in test [2] was “potent activity”.
Take `Cc1cccc(C(C)(C)CC(O)(Cc2ccnc3ccccc23)C(F)(F)F)c1` (centres unmarked) [1,1,1-Trifluoro-4-methyl-2-quinolin-4-ylmethyl-4-m-tolylpentan-2-ol]: the “activity as agonists” value in test [1] is listed as “potent agonists”. The “activity in the GR binding assay” value in test [2] is on record as “potent activity”.
For `Cc1ccccc1C(C)(C)CC(O)(Cc1ccnc2ccccc12)C(F)(F)F` (centres unmarked) [1,1,1-Trifluoro-4-methyl-2-quinolin-4-ylmethyl-4-o-tolylpentan-2-ol], the “activity as agonists” value in test [1] is reported as “potent agonists”. In addition, in test [2], the “activity in the GR binding assay” value is given as “potent activity”.
